# Experimental data: US12024584B2, “Methods and compositions for polyurethane dispersions using caprolactam-derived solvents” (AdvanSix Resins & Chemicals LLC, priority 2017, dated 2024)
# Columns and labels:
# [1] = Persoz hardness of pigmented and complete PUDs; assay type: physicochemical; conditions: pigmented, in s
# Excerpt: (§1) Tests were first performed to determine the coalescing agent level for pigmented and complete PUD formulations in order to achieve the optimum film formation. Complete paints were mixed with 0.7 wt. %, 1.5 wt. %, 3.0 wt. % and 5.0 wt. % of coalescing agents and applied on tin plated steel at a wet film thickness of around 250 μm, where the weight percentage was based on the pure polyurethane dispersion resins. […] Based on the observations, 3 wt. % dosage of coalescing agent was selected. Complete PUD formulations with pigments, fillers and other additives were prepared as per Table 5, and used to test and determine the coalescing properties of the caprolactam-derived solvents and other known coalescing agents.
# Persoz hardness measurements were performed on pigmented paints that were applied on tin plated steel using a doctor blade applicator at a dry film thickness (DFT) around 50 μm according to the ISO 1522 standard. […] For instance, the 28 day hardness for N-ethyl caprolactam (NE CPL) was approximately 104.6±0.5, while the 28 day hardness for NMP was approximately 108.8±2.4, and the 28 day hardness for ester alcohol and N-methyl caprolactam (NM CPL) were approximately 124.8±1 and 126.0±1, respectively, while the 28 day hardness for NBP was approximately 135.8±5.
# [2] = Minimum film forming temperature, non-pigmented resin + coalescing agent; assay type: physicochemical; conditions: resin with 5 wt. % coalescing agent, film thickness 350 μm
# [3] = Viscosity and storage stability of pigmented PUD formulations; assay type: physicochemical; conditions: 1 month at 50° C., FIG. 5
# Excerpt: as §1
# Dispersions and emulsions tend to aggregate polyurethane particles during storage. One way to determine the stability of a polyurethane dispersion is to measure viscosity of the polyurethane dispersion over time. Viscosity is a measure of a solvent's resistance to gradual deformation by shear stress or tensile stress. […] The storage stability of the dispersions was evaluated based on variations between viscosity measurements performed on paints shortly after their preparation and after their storage for either one month at room temperature or one month at 50° C.
# [4] = MFFT of pigmented and complete PUDs; assay type: physicochemical; conditions: pigmented and complete PUD, 3 wt. % coalescing agent
# Excerpt: as §1, with “agents. The standard test for determining this temperature involves using a MFFT-BAR, as specified by standards ASTM D 2354 and ISO 2115. In general, the MFFT of a paint or coating is reduced temporarily by the use of coalescing agents.” for “agents.”
# [5] = Scrub resistance of pigmented and complete PUDs (ISO 11998); assay type: physicochemical
# Excerpt: as §1
# Scrub resistance was tested according the ISO 11998 “Paints and Varnishes—Determination of Wet-Scrub Resistance and Cleanability of Coatings” standard. In this testing method, the paint was applied on a test panel (Leneta sheet) using a film applicator at the specific gap clearance. After drying and conditioning for four weeks at room temperature the coated panel was weighed and subject to 200 wet-scrub cycles in a scrub resistance machine. The panel was then washed, dried and weighed to determine the loss from which the mean loss in film thickness was calculated. […] For instance, N-methyl caprolactam (NM CPL), N-ethyl caprolactam (NE CPL), and blends thereof in the ratios of 1:2 and 1:1, all had less loss of thickness (2.035 μm, 1.797 μm, 1.39 μm, and 1.64 μm, respectively) as compared to NMP (2.090 μm) and NBP (2.213 μm).
# [6] = Solubility of DMPA in solvents
# Protocol: Solubility was tested between the various solvents to determine their applicability in the PUD manufacturing processes. Solubility is the amount of a substance (coalescing agent) that dissolves in a unit volume of a liquid substance (solvent) to form a saturated solution under specified conditions of temperature and pressure. For the examples, amounts of […] (DMPA) were dissolved in each solvent.
# [7] = Color of pigmented and complete PUDs (ISO 7724-2); assay type: physicochemical
# Excerpt: as §1
# (§2) Gloss measurements serve as an indicator of the paints surface quality. Gloss and color measurements were determined according to the ISO 2813 standard and the ISO 7724-2 standard (SCI-D65/10°), respectively.
# [8] = Gloss of pigmented and complete PUDs (ISO 2813); assay type: physicochemical
# Excerpt: as §1, §2
# [9] = Freeze and thaw stability (ASTM D2243-95); assay type: physicochemical
# Protocol: Water-based emulsions and dispersions are susceptible to irreversible coagulation by freezing. Freeze and thaw stability was tested according the ASTM D2243-95 standard.
# For these examples, pigmented PUD paints were subject to freeze-thaw cycles of 16 hours at −20° C. and 8 hours at room temperature and subsequently subject to visible observations. The paints were then applied on a tin plated steel plate at a thickness of approximately 200 μm for observing film properties.
# In addition, the freeze-thaw stability was best for caprolactam-derived coalescing agents (NM CPL) and the blends even after subject to five cycles (see FIG. 9). In particular, the paints were visually observed after each cycle to see if there was any viscosity change, i.e., thickening of the paint. Then, the dry films of the coatings were observed visually.
# Open time (ASTM D7488) = assay type: physicochemical; conditions: ASTM D7488, 23±2° C., 50±5% RH, wet film 200 μm
# Excerpt: as §1
# Open times were determined according to the ASTM D7488 “Test Method for Open Time of Latex” standard and the tests were performed under controlled temperature and humidity (23±2° C. and 50±5% RH). In general, the paints were applied at a wet film thickness of 200 μm on contrasting sealed charts by means of a doctor blade applicator, and “X” marks are made immediately with the wide curved end of a wooden paint brush. After a determined time internal, the brush was dipped into the paint to be tested and brushing of the X-marks was started in perpendicular direction to the initial drawdown using 10 strokes back and forth to work the paint under test into the drawdown area. This procedure is repeated after several time intervals. After their complete drying (1 week), the painted panels are observed by two different observers and the time for which the “X” marks to become visible is considered as the open time.
# [10] = Drying time (ASTM D1640 / ASTM D5895); assay type: physicochemical; conditions: 200 μm humid film; blends by ASTM D1640, single solvents by ASTM D5895
# Excerpt: as §1
# The drying times for the pigmented PUD formulations were determined according to the ASTM D1640 “Standard Test Methods for Drying, Curing, or Film Formation of Organic Coatings” standard or the ASTM D5895 “Standard Test Methods for Evaluating Drying or Curing During Film Formation of Organic Coatings Using Mechanical Recorders” standard. Four stages of drying can be identified depending on the trace left by the needle on the paint surface: Stage 1—Set-to-Touch time, Stage 2—Tack-Free time, Stage 3—Dry-Hard time, and Stage IV—Dry trough time. However, Stage IV is often hard to detect.
# In general, the paints were applied at a humid film thickness of 200 μm by means of a bar coater on a Leneta sheet and the needle rate was set at 60 cm/hr.
# For the present examples, the drying times for the 2:1 A:B, 1:1 A:B, and 1:2 A:B solvents were determined using the ASTM D1640 standard, and the drying times for NM CPL, NE CPL, NMP, NBP, ester amide, and ester alcohol were determined using the ASTM D5895 standard.
compound,measurement,setting,value
"CN1CCCCCC1=O [N—MeCPL, N-methyl caprolactam]",Persoz Hardness,[1]; 1 Day,95.2 ± 1
same,Persoz Hardness,[1]; 7 Days,101.2 ± 3
same,Persoz Hardness,[1]; 14 Days,122.0 ± 3
same,Persoz Hardness,[1]; 21 Days,124.0 ± 3
same,Persoz Hardness,"[1]; 28 Days, listed as NM CPL",~126.0±1
same,Persoz Hardness,"[1]; 28 Days, listed as NMCPL",126.0 ± 1
same,MFFT,[2],−0.8±0.4 °C
same,storage stability (viscosity buildup),[3],low viscosity buildup
same,MFFT,[4],−0.8 °C
same,Wt. Loss,[5]; 200 wet-scrub cycles,3.763 g/m^2
same,Loss of thickness after 200 wet-scrub cycles,[5]; calculated from weight loss,2.035 µm
same,Solubility,[6],27.5 g/100 g of Solvent
same,Color (Black background) L*,[7]; Black background,94.09
same,Color (Black background) a*,[7]; Black background,−0.97
same,Color (Black background) b*,[7]; Black background,2.25
same,Color (White background) L*,[7]; White background,95.07
same,Color (White background) a*,[7]; White background,−0.52
same,Color (White background) b*,[7]; White background,3.32
same,effect on color (yellowing),[7]; pigmented PUD,no yellowing
same,Gloss 20°,[8]; 20°,1.3 ± 0
same,Gloss 60°,[8]; 60°,3.0 ± 0
same,Gloss 85°,[8]; 85°,23.2 ± 0.2
same,freeze-thaw stability and film properties (comparison),[9]; FIGS. 8 and 9,better freeze-thaw stability and film properties than NBP and ester alcohol
same,freeze-thaw stability: viscosity change (thickening of the paint),[9]; cycles of 16 hours at −20° C. and 8 hours at room temperature,no such viscosity change even after five freeze-thaw cycle
same,Open Time,Open time (ASTM D7488),14 min
same,Drying Time,[10],11.6 min
